Test results reported in patent US12258554B2 (priority 2014, dated 2025).
“And” between values parts separate entries of the source, which are not always exact repeats. Identical values can stand only once. Like-named read-outs stand apart in the source and are kept apart here. Where a SMILES comes first, the peptide text is derived from it. Bridges are numbered along the chain shown (N, C = ends). [ ]: non-standard residue; d: D form. The star is where a group is joined. ξ: configuration not given here. Pentadecanoyl(3ξ-OH,15-Gua) = N=C(N)NCCCCCCCCCCCCC(O)CC(=O)*; d(aThr) = C[C@@H](O)[C@@H](N)C(=O)O; Thr(3ξ) = CC(O)[C@H](N)C(=O)O; ξY = NC(Cc1ccc(O)cc1)C(=O)O

Assays:
[1] = tested on: Botrytis cinerea (BOTRCI); test: Fungal growth assay in 96 well plates; format: cell-based; conditions: evaluation 7 d after inoculation, OD 600 nm, YBA, about 18° C.; read-out: Fungal growth inhibition (IC50) BOTRCI (7d)
Procedure: (§1) Fungal growth assays were performed in 96 well plates with spore suspension of the pathogen Botrytis cinerea (BOTRCI, in YBA [10 g Bacto peptone (Becton Dickinson 211677), 10 g yeast extract (Becton Dickinson 212750), 20 g sodium acetate, ad 1000 mL aqua bidest] or Alternaria solani (ALTESO, in YBG [10 g Bacto peptone (Becton Dickinson 211677), 10 g yeast extract (Becton Dickinson 212750), 20 g glycerine 99%, ad 1000 mL aqua bidest]). Fusaricidins and compounds 1A and 1B were dissolved and diluted in DMSO. Different concentrations ranging from 60 μM down to 0.3 μM were pipetted into the microtiter plate. An aqueous suspension of 10^4 spores/ml was added. The plates were incubated at about 18° C. Fungal growth was determined by measuring the optical density at 600 nm in a microplate reader 3 and 7 days after the inoculation of the spores and compared to the untreated control (DMSO). IC50 (concentration [μM] of the respective metabolite required for 50% inhibition of fungal growth) has been determined thereafter.

[2] = tested on: Alternaria solani (ALTESO); test: Fungal growth assay in 96 well plates; format: cell-based; conditions: OD 600 nm, YBG, about 18° C.
Procedure: as §1

[3] = tested on: Fusarium graminearum (GIBBZE); format: in vivo; conditions: for % efficacy (% fungal attack): head blight on wheat, protective application, metabolite conc. 360 ppm, visually assessed 5-7 days after inoculation
[4] = tested on: Phytophthora infestans (PHYTIN); format: in vivo; conditions: for % efficacy (% fungal attack): late blight on tomato, protective application, metabolite conc. 7.2 ppm, visually assessed 5-7 days after inoculation; for % efficacy PHYTIN: in planta, 360 ppm, assessed 5-7 days after inoculation
[5] = tested on: Botrytis cinerea (BOTRCI); conditions: in vivo
[6] = tested on: important fungal diseases on crop plants; format: in vivo; conditions: metabolites; for controlling important fungal diseases on crop plants: dose levels as low as 7.2 ppm; for antifungal efficacy compared with Fusaricidin A, B and D: glasshouse trials
[7] = tested on: Alternaria solani (ALTESO); conditions: in vivo
[8] = tested on: Phakopsora pachyrhizi (PHAKPA); conditions: in vivo
[9] = tested on: Septoria tritici (SEPTTR); test: Glasshouse test, speckled leaf blotch on wheat, protective application; format: in vivo; conditions: metabolite conc. 360 ppm
Procedure: Commercially available young wheat seedlings were used for the described greenhouse trial. 2 replications (pots with 1 plant each) were used per treatment. Plants were grown in commercially available substrate (Universal, Floragard) at approx. 22° C. in the greenhouse. The humidity was controlled using a special device (˜90% humidity). The plants were sprayed to runoff with crude culture broth of 2-6 days old cultures of Paenibacillus spp. (depending on the setup) using a spray cabinet. Culture conditions are described in Example 3. One day after application the treated plants were inoculated with a suspension of spores of Septoria tritici (SEPTTR). After inoculation, the trial plants were immediately transferred to a humid chamber. The extent of fungal attack on the leaves was visually assessed 21-28 days after inoculation.

[10] = tested on: clinically relevant fungi and gram-positive bacteria such a Staphylococcus aureus; conditions: ChemMedChem 7, 871-882, 2012; cited from earlier work
[11] = evaluation 3 d after inoculation, read-out: Fungal growth inhibition (IC50) ALTESO (3 d)
[12] = evaluation 7 d after inoculation, read-out: Fungal growth inhibition (IC50) ALTESO (7 d)

| Structure (SMILES) | IC50 [1] [nM] | IC50 [2, 11] [nM] | IC50 [2, 12] [nM] | % efficacy (% fungal attack) [3] [%] | % efficacy (% fungal attack) [4] [%] | % efficacy BOTRCI [5] | controlling important fungal diseases on crop plants [6] | antifungal efficacy compared with Fusaricidin A, B and D [6] | % efficacy ALTESO [7] [%] | % efficacy GIBBZE ([3]; in planta, 360 ppm, assessed 5-7 days after inoculation) [%] | % efficacy PHYTIN [4] [%] | % efficacy PHAKPA [8] [%] | % efficacy (% fungal attack) [9] [%] | MIC value range [10] [µg/mL] |
| --- | --- | --- | --- | --- | --- | --- | --- | --- | --- | --- | --- | --- | --- | --- |
| CC(C)[C@@H]1NC(=O)[C@@H](C(C)C)NC(=O)[C@@H](NC(=O)CC(O)CCCCCCCCCCCCN=C(N)N)C(C)OC(=O)[C@@H](C)NC(=O)[C@@H](CCC(N)=O)NC(=O)[C@@H]([C@H](C)O)NC1=O (stereo in doubt) [Compound 5B, fusaricidin B] | 600 | 1100 | 600 | 0 | 4 |  |  |  |  |  |  |  |  |  |
| CCC(C)C1NC(=O)C(NC(=O)CC(O)CCCCCCCCCCCCNC(=N)N)C(C)OC(=O)C(C)NC(=O)C(CC(N)=O)NC(=O)C(C(C)O)NC(=O)C(Cc2ccc(O)cc2)NC1=O (stereo not shown) [Compound 1A] ({Pentadecanoyl(3ξ-OH,15-Gua)}-TIYTNA; ester 1-C; configuration not given here) | 300 | 600 | 500 | 49 |  | 99% and 97% | effective | higher antifungal efficacy than Fusaricidin A, B and D | 74 | 49 | 100 | 95 |  |  |
| CCC(C)C1NC(=O)C(NC(=O)CC(O)CCCCCCCCCCCCNC(=N)N)C(C)OC(=O)C(C)NC(=O)C(CCC(N)=O)NC(=O)C(C(C)O)NC(=O)C(Cc2ccc(O)cc2)NC1=O (stereo not shown) [Compound 1B] ({Pentadecanoyl(3ξ-OH,15-Gua)}-TIYTQA; ester 1-C; configuration not given here) | 400 | 600 | 400 |  | 44 | 97% and 100% | effective | higher antifungal efficacy than Fusaricidin A, B and D |  |  | 100 | 97 | 80 |  |
| CC1OC(=O)[C@@H](C)NC(=O)[C@@H](CCC(N)=O)NC(=O)[C@@H]([C@H](C)O)NC(=O)C(Cc2ccc(O)cc2)NC(=O)[C@@H](C(C)C)NC(=O)[C@H]1NC(=O)CC(O)CCCCCCCCCCCCN=C(N)N (stereo partly shown) [Compound 2B, fusaricidin D] ({Pentadecanoyl(3ξ-OH,15-Gua)}-[Thr(3ξ)][dV][ξY][dT][dQ][dA]; ester 1-C) | 500 | 1100 | 600 |  | 0 |  |  |  |  |  |  |  | 50 |  |
| CC(C)[C@@H]1NC(=O)[C@@H](C(C)C)NC(=O)[C@@H](NC(=O)CC(O)CCCCCCCCCCCCN=C(N)N)[C@@H](C)OC(=O)[C@@H](C)NC(=O)[C@@H](CC(N)=O)NC(=O)[C@@H]([C@@H](C)O)NC1=O (stereo partly shown) [Compound 5A, fusaricidin A] ({Pentadecanoyl(3ξ-OH,15-Gua)}-T[dV]V[d(aThr)][dN][dA]; ester 1-C) | 500 | 1300 | 700 | 31 | 15 |  |  |  |  |  |  |  |  | 0.78 to 3.12 |
